Reference: PubChem BioAssay AID1918991 (Molecular Pharmacology Branch, DTP, NCI, 2023)

Test system: 186277-243-T-J2-PDC complex spheroid growth
Assay: Anticancer human tumor 186277-243-T-J2-PDC patient-derived colon adenocarcinoma cell line growth inhibition [AhR]
Details: for IC50: curve of first compound; for viability, T/C: stronger effect = lower value
Outline: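 Agents were dosed in half-log steps down from roughly clinical Cmax, or from 10 microM where Cmax was unknown, alone and with AhR antagonists. Read-out: percent test/control growth of tumor spheroids containing HUVEC and MSC stromal cells.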

[1] = second compound 0.1 µM, first compound 0.0316 µM
[2] = second compound 0.1 µM, first compound 0.1 µM
[3] = second compound 0.1 µM, first compound 0.316 µM
[4] = second compound 0.1 µM, first compound 1 µM
[5] = second compound 0.1 µM, first compound 3.16 µM
[6] = second compound 0.1 µM, first compound 10 µM
[7] = second compound 0.316 µM, first compound 0.0316 µM
[8] = second compound 0.316 µM, first compound 0.1 µM
[9] = second compound 0.316 µM, first compound 0.316 µM
[10] = second compound 0.316 µM, first compound 1 µM
[11] = second compound 0.316 µM, first compound 3.16 µM
[12] = second compound 0.316 µM, first compound 10 µM
[13] = second compound 1 µM, first compound 0.0316 µM
[14] = second compound 1 µM, first compound 0.1 µM
[15] = second compound 1 µM, first compound 0.316 µM
[16] = second compound 1 µM, first compound 1 µM
[17] = second compound 1 µM, first compound 3.16 µM
[18] = second compound 1 µM, first compound 10 µM
[19] = second compound 3.16 µM, first compound 0.0316 µM
[20] = second compound 3.16 µM, first compound 0.1 µM
[21] = second compound 3.16 µM, first compound 0.316 µM
[22] = second compound 3.16 µM, first compound 1 µM
[23] = second compound 3.16 µM, first compound 3.16 µM
[24] = second compound 3.16 µM, first compound 10 µM
[25] = second compound 10 µM, first compound 0.0316 µM
[26] = second compound 10 µM, first compound 0.1 µM
[27] = second compound 10 µM, first compound 0.316 µM
[28] = second compound 10 µM, first compound 1 µM
[29] = second compound 10 µM, first compound 3.16 µM
[30] = second compound 10 µM, first compound 10 µM
[31] = second compound 0.1 µM, first compound 0.00316 µM
[32] = second compound 0.1 µM, first compound 0.01 µM
[33] = second compound 0.316 µM, first compound 0.00316 µM
[34] = second compound 0.316 µM, first compound 0.01 µM
[35] = second compound 1 µM, first compound 0.00316 µM
[36] = second compound 1 µM, first compound 0.01 µM
[37] = second compound 3.16 µM, first compound 0.00316 µM
[38] = second compound 3.16 µM, first compound 0.01 µM
[39] = second compound 10 µM, first compound 0.00316 µM
[40] = second compound 10 µM, first compound 0.01 µM
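Note: spheroids exposed to compounds for seven days before the viability read.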
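Throughout, for viability, T/C: luminescent signal used as a stand-in for viable cell amount; 100% = DMSO vehicle control wells.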

| Structure (SMILES) | IC50 (second compound 0.1 µM) [nM] | IC50 (second compound 0.316 µM) [nM] | IC50 (second compound 1 µM) [nM] | IC50 (second compound 3.16 µM) [nM] | IC50 (second compound 10 µM) [nM] | viability, T/C [1] [%] | viability, T/C [2] [%] | viability, T/C [3] [%] | viability, T/C [4] [%] | viability, T/C [7] [%] | viability, T/C [8] [%] | viability, T/C [9] [%] | viability, T/C [10] [%] | viability, T/C [13] [%] | viability, T/C [14] [%] | viability, T/C [15] [%] | viability, T/C [19] [%] | viability, T/C [20] [%] | viability, T/C [25] [%] | viability, T/C [26] [%] | other results |
| --- | --- | --- | --- | --- | --- | --- | --- | --- | --- | --- | --- | --- | --- | --- | --- | --- | --- | --- | --- | --- | --- |
| CC(C)c1c(-c2ccccc2)nc2c(C#N)c[nH]n2c1=O + CC(CO)NC(=O)c1cc(-c2ccc(Cl)cc2)nn(-c2cnn(C)c2)c1=O | > 10000 | > 10000 | > 10000 | > 10000 | > 10000 | 95.2 | 93.5 | 88.4 | 95.5 | 99.5 | 100 | 109 | 92.9 | 104 | 113 | 105 | 92.2 | 85.1 | 90.2 | 85.1 | viability, T/C [5]: 89.5%; viability, T/C [6]: 79.6%; viability, T/C [11]: 99.2%; viability, T/C [12]: 91.7%; viability, T/C [16]: 104%; viability, T/C [17]: 86.4%; viability, T/C [18]: 93.8%; viability, T/C [21]: 91.9%; viability, T/C [22]: 89.8%; viability, T/C [23]: 87.3%; viability, T/C [24]: 95%; viability, T/C [27]: 81.8%; viability, T/C [28]: 85.5%; viability, T/C [29]: 76.9%; viability, T/C [30]: 87.3% |
| CC[C@@]1(O)C(=O)OCc2c1cc1n(c2=O)Cc2cc3c(CN(C)C)c(O)ccc3nc2-1 + Cc1ccccc1N=Nc1ccc(NC(=O)c2ccnn2C)c(C)c1 | > 100 | > 100 | > 100 | > 100 | > 100 | 119 | 113 |  |  | 114 | 105 |  |  | 116 | 119 |  | 107 | 104 | 90.5 | 99.3 | viability, T/C (second compound 0.1 µM, first compound 0.000316 µM): 97.7%; viability, T/C (second compound 0.1 µM, first compound 0.001 µM): 113%; viability, T/C [31]: 107%; viability, T/C [32]: 133%; viability, T/C (second compound 0.316 µM, first compound 0.000316 µM): 113%; viability, T/C (second compound 0.316 µM, first compound 0.001 µM): 101%; viability, T/C [33]: 113%; viability, T/C [34]: 115%; viability, T/C (second compound 1 µM, first compound 0.000316 µM): 97.8%; viability, T/C (second compound 1 µM, first compound 0.001 µM): 103%; viability, T/C [35]: 110%; viability, T/C [36]: 123%; viability, T/C (second compound 3.16 µM, first compound 0.000316 µM): 94.9%; viability, T/C (second compound 3.16 µM, first compound 0.001 µM): 92.9%; viability, T/C [37]: 116%; viability, T/C [38]: 135%; viability, T/C (second compound 10 µM, first compound 0.000316 µM): 81.8%; viability, T/C (second compound 10 µM, first compound 0.001 µM): 92.2%; viability, T/C [39]: 98.1%; viability, T/C [40]: 117% |
| Nc1ccn(C2OC(CO)C(O)C2(F)F)c(=O)n1 (stereo not given) + Cc1ccccc1N=Nc1ccc(NC(=O)c2ccnn2C)c(C)c1 | < 31.6 | < 31.6 | < 31.6 | < 31.6 | < 31.6 | 16.6 | 15.3 | 14.9 | 16.3 | 14.9 | 14.5 | 16.5 | 18 | 16 | 16 | 16.4 | 14.6 | 13 | 16 | 15.9 | viability, T/C [5]: 18.7%; viability, T/C [6]: 17.1%; viability, T/C [11]: 17.4%; viability, T/C [12]: 17.4%; viability, T/C [16]: 17%; viability, T/C [17]: 18.3%; viability, T/C [18]: 19.4%; viability, T/C [21]: 15.7%; viability, T/C [22]: 15.3%; viability, T/C [23]: 17.1%; viability, T/C [24]: 17.1%; viability, T/C [27]: 16.6%; viability, T/C [28]: 17.8%; viability, T/C [29]: 18%; viability, T/C [30]: 18.8% |

The next lines start with results.

| IC50 (second compound 0.1 µM) [nM] | IC50 (second compound 0.316 µM) [nM] | IC50 (second compound 1 µM) [nM] | IC50 (second compound 3.16 µM) [nM] | IC50 (second compound 10 µM) [nM] | Structure (SMILES) | viability, T/C [1] [%] | viability, T/C [2] [%] | viability, T/C [3] [%] | viability, T/C [4] [%] | viability, T/C [7] [%] | viability, T/C [8] [%] | viability, T/C [9] [%] | viability, T/C [10] [%] | viability, T/C [13] [%] | viability, T/C [14] [%] | viability, T/C [15] [%] | viability, T/C [19] [%] | viability, T/C [20] [%] | viability, T/C [25] [%] | viability, T/C [26] [%] | other results |
| --- | --- | --- | --- | --- | --- | --- | --- | --- | --- | --- | --- | --- | --- | --- | --- | --- | --- | --- | --- | --- | --- |
| 8920 | 7740 | 7570 | 7220 | 7390 | COc1cc(C2c3cc4c(cc3C(OC3OC5COC(C)OC5C(O)C3O)C3COC(=O)C23)OCO4)cc(OC)c1O (stereo not given) + Cc1ccccc1N=Nc1ccc(NC(=O)c2ccnn2C)c(C)c1 | 87.1 | 103 | 142 | 99.7 | 98.5 | 117 | 145 | 96.1 | 113 | 124 | 144 | 94.8 | 106 | 102 | 104 | viability, T/C [5]: 81%; viability, T/C [6]: 46.5%; viability, T/C [11]: 78.6%; viability, T/C [12]: 42%; viability, T/C [16]: 93.6%; viability, T/C [17]: 76.2%; viability, T/C [18]: 41.7%; viability, T/C [21]: 137%; viability, T/C [22]: 94.6%; viability, T/C [23]: 72.8%; viability, T/C [24]: 41.2%; viability, T/C [27]: 118%; viability, T/C [28]: 93.6%; viability, T/C [29]: 71.7%; viability, T/C [30]: 42.4% |
| 456 | 446 | 487 | 463 | 440 | COc1cccc2c1C(=O)c1c(O)c3c(c(O)c1C2=O)CC(O)(C(=O)CO)CC3OC1CC(N)C(O)C(C)O1 (stereo not given) + Cc1ccccc1N=Nc1ccc(NC(=O)c2ccnn2C)c(C)c1 | 158 | 147 | 71 | 4.6 | 161 | 138 | 70 | 4.18 | 161 | 136 | 77.1 | 152 | 133 | 131 | 120 | viability, T/C [5]: 0.4%; viability, T/C [6]: 0.61%; viability, T/C [11]: 0.3%; viability, T/C [12]: 1.25%; viability, T/C [16]: 4.8%; viability, T/C [17]: 0.42%; viability, T/C [18]: 0.91%; viability, T/C [21]: 72.9%; viability, T/C [22]: 3.91%; viability, T/C [23]: 0.08%; viability, T/C [24]: 1.27%; viability, T/C [27]: 68.9%; viability, T/C [28]: 2.85%; viability, T/C [29]: 0.25%; viability, T/C [30]: 0.52% |
| > 1000 | > 1000 | > 1000 | > 1000 | > 1000 | Nc1ncn(C2CC(O)C(CO)O2)c(=O)n1 (stereo not given) + Cc1ccccc1N=Nc1ccc(NC(=O)c2ccnn2C)c(C)c1 | 105 | 112 | 103 | 143 | 108 | 115 | 120 | 144 | 102 | 128 | 119 | 101 | 105 | 103 | 109 | viability, T/C [31]: 115%; viability, T/C [32]: 108%; viability, T/C [33]: 118%; viability, T/C [34]: 96.8%; viability, T/C [35]: 100%; viability, T/C [36]: 102%; viability, T/C [16]: 144%; viability, T/C [37]: 103%; viability, T/C [38]: 128%; viability, T/C [21]: 113%; viability, T/C [22]: 122%; viability, T/C [39]: 90.2%; viability, T/C [40]: 97.2%; viability, T/C [27]: 104%; viability, T/C [28]: 103% |
